From ChEMBL document CHEMBL1208759, “A newly synthesized, potent tyrosinase inhibitor: 5-(6-hydroxy-2-naphthyl)-1,2,3-benzenetriol” (Bioorg Med Chem Lett, 2010)

Columns and labels:
B16 [1] = test: Antimelanogenic activity in mouse B16 cells assessed as inhibition of melanin content at 400 uM relative to alpha-MSH; assay type: functional
[2] = target: T1, Tyrosinase (Agaricus bisporus) (UniProt O42713); conditions: 0.5 uM
T1 sequence (whole entry): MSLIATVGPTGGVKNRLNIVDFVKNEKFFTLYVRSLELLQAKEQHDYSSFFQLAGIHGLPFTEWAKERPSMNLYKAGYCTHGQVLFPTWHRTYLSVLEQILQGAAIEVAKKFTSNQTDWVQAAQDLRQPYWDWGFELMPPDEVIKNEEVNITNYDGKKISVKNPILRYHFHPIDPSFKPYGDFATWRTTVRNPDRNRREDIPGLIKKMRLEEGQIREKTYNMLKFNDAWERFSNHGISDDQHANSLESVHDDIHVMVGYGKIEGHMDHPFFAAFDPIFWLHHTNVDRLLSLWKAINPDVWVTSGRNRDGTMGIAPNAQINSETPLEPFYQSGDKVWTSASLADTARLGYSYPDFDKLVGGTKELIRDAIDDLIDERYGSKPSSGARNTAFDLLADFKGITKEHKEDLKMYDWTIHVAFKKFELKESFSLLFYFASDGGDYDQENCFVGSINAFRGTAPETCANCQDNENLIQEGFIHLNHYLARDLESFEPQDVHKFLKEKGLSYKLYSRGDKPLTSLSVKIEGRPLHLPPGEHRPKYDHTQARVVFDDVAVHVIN
Description: Inhibition of mushroom tyrosinase at 0.5 uM

[3] = target: T1, Tyrosinase (Agaricus bisporus); conditions: 2.5 uM
Description: Inhibition of mushroom tyrosinase at 2.5 uM

[4] = target: T2, Tyrosinase (Mus musculus) (UniProt P11344); test: Inhibition of tyrosinase activity in mouse B16 cells at 25 uM; assay type: cell-based
T2 sequence (whole entry): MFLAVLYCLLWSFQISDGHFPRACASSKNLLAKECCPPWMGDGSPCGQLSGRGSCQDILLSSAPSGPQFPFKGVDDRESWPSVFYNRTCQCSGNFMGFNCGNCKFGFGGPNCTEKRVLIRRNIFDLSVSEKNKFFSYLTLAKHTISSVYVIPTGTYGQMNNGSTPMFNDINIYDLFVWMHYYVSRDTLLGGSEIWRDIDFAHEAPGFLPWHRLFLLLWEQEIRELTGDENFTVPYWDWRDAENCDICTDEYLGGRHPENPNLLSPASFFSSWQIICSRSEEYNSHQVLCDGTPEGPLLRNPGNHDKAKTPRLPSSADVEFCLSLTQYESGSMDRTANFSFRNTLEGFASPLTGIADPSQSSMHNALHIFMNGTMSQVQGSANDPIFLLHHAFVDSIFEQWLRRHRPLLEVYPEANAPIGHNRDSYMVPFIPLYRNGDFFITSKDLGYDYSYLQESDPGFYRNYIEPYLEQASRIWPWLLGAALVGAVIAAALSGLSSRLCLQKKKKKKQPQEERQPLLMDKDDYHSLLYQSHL

[5] = Cytotoxicity against mouse B16 cells assessed as cell viability at 50 uM after 24 hrs by MTT assay; assay type: cell-based; conditions: read-out: Activity
[6] = target: T2, Tyrosinase (Mus musculus); test: Inhibition of tyrosinase activity in mouse B16 cells at 100 uM; assay type: cell-based
[7] = target: T1, Tyrosinase (Agaricus bisporus); conditions: 1 uM
Description: Inhibition of mushroom tyrosinase at 1 uM

B16 [8] = test: Antimelanogenic activity in mouse B16 cells assessed as inhibition of melanin content at 100 uM relative to alpha-MSH; assay type: functional
[9] = target: T1, Tyrosinase (Agaricus bisporus); conditions: 5 uM
Description: Inhibition of mushroom tyrosinase at 5 uM

[10] = Cytotoxicity against mouse B16 cells assessed as cell viability at 25 uM after 24 hrs by MTT assay; assay type: cell-based; conditions: read-out: Activity
[11] = target: T2, Tyrosinase (Mus musculus); test: Inhibition of tyrosinase activity in mouse B16 cells at 400 uM; assay type: cell-based
[12] = Cytotoxicity against mouse B16 cells assessed as cell viability at 100 uM after 24 hrs by MTT assay; assay type: cell-based; conditions: read-out: Activity
B16 [13] = test: Antimelanogenic activity in mouse B16 cells assessed as inhibition of melanin content at 25 uM relative to alpha-MSH; assay type: functional

inhibition [2]: 7.53% | inhibition [3]: 39.4% | inhibition [4]: 26.2% | inhibition [6]: 14.1% | inhibition [7]: 18.7% | inhibition [9]: 86.1% | inhibition [11]: 2.05%
Structure (SMILES): Oc1ccc2cc(-c3cc(O)c(O)c(O)c3)ccc2c1
inhibition at 400 µM (B16 [1]): 34.7% | viability at 24 h, 50 µM [5]: 98.1% | inhibition at 100 µM (B16 [8]): 45.8% | viability at 24 h, 25 µM [10]: 98.3% | viability at 24 h, 100 µM [12]: 95.1% | inhibition at 25 µM (B16 [13]): 50.7%
